Where “and” joins values, the source holds several entries; their conditions need not be identical. Identical values can stand only once. Entries after “also recorded” stand apart in the source; their conditions may differ. Marks after values point to notes of the source that are not given here.
What was measured:
[1] = system: phospho-Akt1 (pAkt); test: Phospho-Akt activation assay in human umbilical vein endothelial cells (Western blot); format: cell-based; settings: for Relative potencies for activation of pAkt: HUVECs, 3, 10 and 30 μM
Experimental: The ability of the small molecule analogues as shown in EXAMPLES 1-3 to stimulate production of phospho-Akt1 (pAkt) was tested. Akt plays a critical role in controlling cell survival and apoptosis, and Akt phosphorylation is increased by the activation of Tie-2. Akt activation can be detected by an antibody that recognizes phosphorylation on the serine 473 residue on Akt.
HUVECs were seeded at 500,000 cells/mL in chemically-defined basal media, and supplemented with distinct growth factors (EGM-2). The following growth factors were required for survival and normal phenotypic expression of endothelial characteristics: fetal bovine serum 2%, hydrocortisone, human fibroblast growth factor-B, vascular endothelial growth factor, recombinant insulin growth factor R3, ascorbic acid, human epidermal growth factor, gentamicin sulfate, amphotericin B, and heparin. Cells were derived from one donor, cultivated in 10 cm dishes, and expanded upon reaching 90% confluence. After three passages, the cells were expanded and ready for testing.
The cells were seeded at 25,000 cells/mL in 6-well plates, and covered with 2 mL of complete media. The cells were fed on day 2 of culture with 2 mL of fresh EGM-2 media. 72 hours after plating, the cells were serum starved by rinsing twice with 2 mL of sterile phosphate buffered saline, and then placed at 37° C. for 3 hours in the presence of basal EGM-2 media (1.5 mL/well without growth factors). The serum starvation allowed the cells to become quiescent.
Compounds 2-4 were dissolved in distilled deionized water at the following concentrations: • Compound 2 (Molecular weight: 622.7): 31 mg/ml. • Compound 3 (Molecular weight: 622.7): 26 mg/ml. • Compound 4 (Molecular weight: 636.7): 32 mg/ml.
All compounds were stored at 4° C. […] Stock concentrations of the above molecules were made at a final working concentration of 1 mM. Specific microliter volumes of the working concentration were added to each 6 well plate at the following concentrations: 3, 10, and 30 micromolar (μM). Cells were treated for 30 minutes.
10× cell lysis buffer was diluted fresh with dH2O. The 1× cell lysis buffer contained: 20 mM Tris-HCl (pH 7.5), 150 mM NaCl, 1 mM Na2EDTA, 1 mM EGTA, 1% Triton, 2.5 mM sodium pyrophosphate, 1 mM β-glycerophosphate, 1 mM Na3VO4, 1 μg/ml leupeptin, and 1 mM PMSF. Immediately before use, 1 mM PMSF was prepared by diluting from a stock of 1 M PMSF made up in DMSO. In addition, a 1× concentration of a Halt protease & phosphatase inhibitor cocktail was included. At the end of the 30 minute treatment, the media was discarded from the cell culture wells by shaking out, and the remaining media was aspirated off the wells. Ice-cold lysis buffer was added at 140 μL/well, and the culture was placed on ice or in a cold room for 30 minutes while rocking. Cell lysates were collected using a cell scraper, placed in microfuge tubes, and stored at −80° C. The levels of protein were quantitated using a microtiter plate BCA protein assay.
2× Laemmli sample buffer was added in equal volume to the […] cell lysis buffer, which contained the lysed endothelial cells. The solution was heated at 100° C. for 5 minutes and then sonicated for 10 seconds. After sonication, the lysates were spun by centrifuge at 4° C. for 5 minutes at 17,000 rpm. 70-100 μg of protein calculated from BCA assay prior to addition of 2× Laemmli sample were added per well of an 8% polyacrylamide gel.
Electrophoresis was performed at 150 volts for approximately 90 minutes at room temperature with 1× Laemmli running buffer. The proteins from the gel were transferred to nitrocellulose at 100 volts for 45 minutes on ice.
The nitrocellulose membranes were removed quickly without drying and placed in phosphate buffered saline (pH 7.3) with 1% nonfat dried milk. The membranes were blocked in the milk solution while rocking for 2 hours at room temperature or overnight at 4° C. […]

[2] = HPLC purity analyses of aqueous solutions over time at room temperature (chemical stability); format: physicochemical
[3] = Solubility testing in water by portionwise addition until saturation; format: physicochemical; settings: for Amount (g) of compound added until saturation: added portionwise to 10 mL water; for Physical appearance: after portionwise addition to 10 mL water; for Filtration: filtration of the sample attempted after stirring overnight; for solubility at 4 weeks: pH 7, aqueous buffer, 50% dilution with water, adjusted to pH 7, T = 4 weeks; for solubility at 0 weeks: estimated from weight added; for solubility: Conclusions: suspensions stirred overnight, filtered and analyzed by HPLC, initial
Experimental: The solubility of compounds 2-4 was determined by portionwise addition of the compounds to water until saturation was obtained. Water (10 mL) was added to a 20-mL vial. About 100 mg of Compound 2 was added. The suspension was stirred at room temperature for 20 minutes until the contents became a clear solution. Compound 2 (˜100 mg portionwise) was added repeatedly with 30 min stirring time between the additions. Once a suspension was obtained after continuous stirring for 2 hours, the suspension was stirred overnight. The same procedure was used for the suspension preparations of Compound 3 and Compound 4.
After stirring overnight, filtration of each sample was attempted.
An aliquot of the suspension of Compound 2 was filtered through a 0.22 micron inline syringe filter.
About 1 mL of the aqueous solutions prepared above was diluted with water by 50%. The pH of the 50% diluted solutions was adjusted to pH 7 either by 0.1 N HCl or by 0.1 N NaOH. Solubility values for the three compounds in the solutions/suspensions before and after dilution are given in the in TABLE 3.
The solubility of Compounds 2-4 was determined by portionwise addition of the compounds to water until saturation was obtained. After stirring overnight, the suspensions were filtered and analyzed by HPLC. […] The solubility of Compound 3 was >200 mg/mL. The absolute solubility of Compound 3 was not determined because in the course of analysis, the solution of Compound 3 became too viscous to stir. […] The 50% diluted solutions of Compounds 2-4 were not viscous, and the compounds remained in solution for 4 weeks. […] All of the diluted solutions were easily syringable over 4 weeks' time.

[4] = Physical stability (appearance) of the aqueous solutions standing at room temperature; format: physicochemical; settings: for Gelation or precipitation of undiluted solution: throughout the 4-week study period (Compound 2: over 5 weeks); for Appearance of solution: undiluted
[5] = 50% diluted samples, room temperature, T = 4 weeks
[6] = undiluted samples, T = 0 (dry sample)
[7] = undiluted samples, room temperature, T = 5 weeks
[8] = undiluted samples, room temperature, T = 1 day
[9] = water, thermodynamic from solid, Before dilution, T = 0
[10] = water, thermodynamic from solid

Compound | Relative potencies for activation of pAkt [1] | HPLC purity [2, 5] | HPLC purity [2, 6] | HPLC purity [2, 7] | HPLC purity [2, 8] | Physical state of the preparation ([3]; 50% dilution, T = 4 weeks) | Physical state of the preparation ([3]; Before dilution, T = 0) | Amount (g) of compound added until saturation ([3]; room temperature) | Physical appearance [3] | Filtration [3] | solubility at 4 weeks ([3]; water) | solubility at 0 weeks [3, 9] | solubility [3, 10] | Gelation or precipitation of undiluted solution [4] | Appearance of solution ([4]; T = 0) | Appearance of solution ([4]; T = 2 week) | Appearance of solution ([4]; T = 3 week) | Appearance of solution ([4]; T = 4 week) | Appearance of solution ([4]; T = 1 day) | Appearance of solution ([4]; T = 2 day) | further results
COC(=O)N(C)[C@@H](Cc1ccccc1)C(=O)N[C@@H](Cc1ccc(NS(=O)(=O)[O-])cc1)c1csc(-c2cccs2)n1.[Na+] [Compound 2, sodium (4-{(S)-2-{(S)-2-[(methoxycarbonyl)(methyl)amino]-3-phenylpropanamido}-2-[2-(thiophen-2-yl)thiazol-4-yl]ethyl}phenyl)sulfamate] | Compound 2>Compound 4>Compound 3 | 82% | 99.59% | 88.99% | 98.7% | (solution) *** | (suspension) | 2.53 g and 2.528 g | formed a suspension; also recorded: Precipitate | difficult and Yes | ~125 mg/mL | ~250 mg/mL | ~200 mg/mL | gradually developed a precipitate | Clear | Precipitate | Precipitate | Precipitate | Clear | Clear | pAkt signal above control ([1]; HUVECs, 30 μM, 30 minutes treatment): 300%; Levels of pAkt (in words) ([1]; HUVECs, sets statement at 30 μM): Noticeable and dose-dependent; HPLC purity ([2]; 50% diluted samples, room temperature, T = 6 weeks (reanalysis)): 96.9% and 96.95%; HPLC purity ([2]; undiluted samples, room temperature, T = 7 weeks (reanalysis)): 93.9% and 93.93%; Concentration in clear filtrate as share of the concentration of the initial, supersaturated solution ([3]; suspension filtered through 0.22 micron filter after 5 weeks): 25%; solubility at 5 weeks ([3]; water, thermodynamic from solid, Before dilution, T = 5 weeks, room temperature): 49.5 mg/mL; Time until precipitation was observed ([4]; 50% diluted solution): about 2.5 months; Time until solution started to show haziness ([4]; undiluted solution): 3 days; Appearance of solution ([4]; T = 3 day): Slightly hazy; Appearance of solution ([4]; T = 4 day): Small precipitate; Appearance of solution ([4]; T = 5 day): Small precipitate; Appearance of solution ([4]; T = 6 day): Precipitate
COC(=O)N(C)[C@@H](Cc1ccccc1)C(=O)N(C)[C@@H](Cc1ccc(NS(=O)(=O)[O-])cc1)c1csc(-c2cccs2)n1.[Na+] [Compound 4, sodium (4-{(S)-2-{(S)-2-[(methoxycarbonyl)(methyl)amino]-N-methyl-3-phenylpropanamido}-2-[2-(thiophen-2-yl)thiazol-4-yl]ethyl}phenyl)sulfamate] | Compound 2>Compound 4>Compound 3 | 97.69% | 98.72% | 96.53% | 98.2% | (solution) | (solution) | 0.624 g | formed a suspension; also recorded: Precipitate | proceeded readily and Yes | 31 mg/mL | 62 mg/mL | ~58 mg/mL | No gelation or precipitation | Clear | Clear | Clear | Clear | Clear | Clear | Solubility value in water ([3]; Before dilution, T = 5 weeks, room temperature): No change*; Appearance of solution ([4]; T = 3 day): Clear; Appearance of solution ([4]; T = 4 day): Clear; Appearance of solution ([4]; T = 5 day): Clear; Appearance of solution ([4]; T = 6 day): Clear

From patent US12187715B2, “Small molecule activators of Tie-2” (EyePoint Pharmaceuticals, Inc., priority 2019, dated 2025)
